From the supplement of paper PMC4862054

tested on: CAL-51; assay: normalised response (% of control), CellTiter-Glo; higher = more viable cells (100 = DMSO, 0 = benzethonium chloride kill control); conditions: incubation time: 72 h
Protocol: (§1)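 DSRT, 72 h incubation, CellTox Green / CellTiter-Glo readout. Signal is normalised to DMSO and benzethonium chloride controls. Value is the normalised response at dose 3.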

Structure (SMILES) | normalised response [%]
CCn1c(C(=O)N(C2CC2)C2CC2)cc2c3c(ncn3C)c(Nc3cc(C)n(C)n3)nc21 (100 nM) | 87.7
COc1ccc(S(=O)(=O)Nc2cccnc2Nc2ccc(O)cc2)cc1 [ABT-751] (100 nM) | 88.9
CCNC(=O)CCC/C=C\C[C@@H]1[C@@H](/C=C/[C@@H](O)CCc2ccccc2)[C@H](O)C[C@@H]1O [Bimatoprost] (55 nM) | 90.4
COc1cc(Nc2c(C#N)cnc3cc(OCCCN4CCN(C)CC4)c(OC)cc23)c(Cl)cc1Cl [Bosutinib] (100 nM) | 100
CCN(CC)CCCC(C)Nc1ccnc2cc(Cl)ccc12 (centres undefined) [Chloroquine] (1000 nM) | 78.1
CC(C)(C)c1nc(-c2cccc(NS(=O)(=O)c3c(F)cccc3F)c2F)c(-c2ccnc(N)n2)s1 [Dabrafenib] (25 nM) | 89.9
CO[C@@]12[C@H](COC(N)=O)C3=C(C(=O)C(C)=C(N)C3=O)N1C[C@@H]1N[C@@H]12 [Mitomycin C] (100 nM) | 101
CC1(C)CCC(c2ccc(Cl)cc2)=C(CN2CCN(c3ccc(C(=O)NS(=O)(=O)c4ccc(N[C@H](CCN5CCOCC5)CSc5ccccc5)c(S(=O)(=O)C(F)(F)F)c4)cc3)CC2)C1 [Navitoclax] (100 nM) | 104
CC(C)n1cnc2c(NCCc3ccc(O)cc3)nc(-c3csc4ccccc34)nc21 [StemRegenin 1] (100 nM) | 80.8

tested on: HCC1143; assay: as above; conditions: incubation time: 72 h
Protocol: as §1

Structure (SMILES) | normalised response [%]
CCn1c(C(=O)N(C2CC2)C2CC2)cc2c3c(ncn3C)c(Nc3cc(C)n(C)n3)nc21 (100 nM) | 101
COc1ccc(S(=O)(=O)Nc2cccnc2Nc2ccc(O)cc2)cc1 [ABT-751] (100 nM) | 99.3
CCNC(=O)CCC/C=C\C[C@@H]1[C@@H](/C=C/[C@@H](O)CCc2ccccc2)[C@H](O)C[C@@H]1O [Bimatoprost] (55 nM) | 99.7
COc1cc(Nc2c(C#N)cnc3cc(OCCCN4CCN(C)CC4)c(OC)cc23)c(Cl)cc1Cl [Bosutinib] (100 nM) | 101
CCN(CC)CCCC(C)Nc1ccnc2cc(Cl)ccc12 (centres undefined) [Chloroquine] (1000 nM) | 97.4
CC(C)(C)c1nc(-c2cccc(NS(=O)(=O)c3c(F)cccc3F)c2F)c(-c2ccnc(N)n2)s1 [Dabrafenib] (25 nM) | 118
CO[C@@]12[C@H](COC(N)=O)C3=C(C(=O)C(C)=C(N)C3=O)N1C[C@@H]1N[C@@H]12 [Mitomycin C] (100 nM) | 98.2
CC1(C)CCC(c2ccc(Cl)cc2)=C(CN2CCN(c3ccc(C(=O)NS(=O)(=O)c4ccc(N[C@H](CCN5CCOCC5)CSc5ccccc5)c(S(=O)(=O)C(F)(F)F)c4)cc3)CC2)C1 [Navitoclax] (100 nM) | 95.6
CC(C)n1cnc2c(NCCc3ccc(O)cc3)nc(-c3csc4ccccc34)nc21 [StemRegenin 1] (100 nM) | 109

tested on: HCC1599; assay: as above; conditions: incubation time: 72 h
Protocol: as §1

Structure (SMILES) | normalised response [%]
CCn1c(C(=O)N(C2CC2)C2CC2)cc2c3c(ncn3C)c(Nc3cc(C)n(C)n3)nc21 (100 nM) | 93
COc1ccc(S(=O)(=O)Nc2cccnc2Nc2ccc(O)cc2)cc1 [ABT-751] (100 nM) | 109
CCNC(=O)CCC/C=C\C[C@@H]1[C@@H](/C=C/[C@@H](O)CCc2ccccc2)[C@H](O)C[C@@H]1O [Bimatoprost] (55 nM) | 99.4
COc1cc(Nc2c(C#N)cnc3cc(OCCCN4CCN(C)CC4)c(OC)cc23)c(Cl)cc1Cl [Bosutinib] (100 nM) | 93.1
CCN(CC)CCCC(C)Nc1ccnc2cc(Cl)ccc12 (centres undefined) [Chloroquine] (1000 nM) | 97
CC(C)(C)c1nc(-c2cccc(NS(=O)(=O)c3c(F)cccc3F)c2F)c(-c2ccnc(N)n2)s1 [Dabrafenib] (25 nM) | 105
CO[C@@]12[C@H](COC(N)=O)C3=C(C(=O)C(C)=C(N)C3=O)N1C[C@@H]1N[C@@H]12 [Mitomycin C] (100 nM) | 95.7
CC1(C)CCC(c2ccc(Cl)cc2)=C(CN2CCN(c3ccc(C(=O)NS(=O)(=O)c4ccc(N[C@H](CCN5CCOCC5)CSc5ccccc5)c(S(=O)(=O)C(F)(F)F)c4)cc3)CC2)C1 [Navitoclax] (100 nM) | 94.5
CC(C)n1cnc2c(NCCc3ccc(O)cc3)nc(-c3csc4ccccc34)nc21 [StemRegenin 1] (100 nM) | 91

tested on: MDA-MB-468; assay: as above; conditions: incubation time: 72 h
Protocol: as §1

Structure (SMILES) | normalised response [%]
CCn1c(C(=O)N(C2CC2)C2CC2)cc2c3c(ncn3C)c(Nc3cc(C)n(C)n3)nc21 (100 nM) | 97
COc1ccc(S(=O)(=O)Nc2cccnc2Nc2ccc(O)cc2)cc1 [ABT-751] (100 nM) | 97
CCNC(=O)CCC/C=C\C[C@@H]1[C@@H](/C=C/[C@@H](O)CCc2ccccc2)[C@H](O)C[C@@H]1O [Bimatoprost] (55 nM) | 94
COc1cc(Nc2c(C#N)cnc3cc(OCCCN4CCN(C)CC4)c(OC)cc23)c(Cl)cc1Cl [Bosutinib] (100 nM) | 95.4
CCN(CC)CCCC(C)Nc1ccnc2cc(Cl)ccc12 (centres undefined) [Chloroquine] (1000 nM) | 83.1
CC(C)(C)c1nc(-c2cccc(NS(=O)(=O)c3c(F)cccc3F)c2F)c(-c2ccnc(N)n2)s1 [Dabrafenib] (25 nM) | 94.7
CO[C@@]12[C@H](COC(N)=O)C3=C(C(=O)C(C)=C(N)C3=O)N1C[C@@H]1N[C@@H]12 [Mitomycin C] (100 nM) | 91.3
CC1(C)CCC(c2ccc(Cl)cc2)=C(CN2CCN(c3ccc(C(=O)NS(=O)(=O)c4ccc(N[C@H](CCN5CCOCC5)CSc5ccccc5)c(S(=O)(=O)C(F)(F)F)c4)cc3)CC2)C1 [Navitoclax] (100 nM) | 83
CC(C)n1cnc2c(NCCc3ccc(O)cc3)nc(-c3csc4ccccc34)nc21 [StemRegenin 1] (100 nM) | 93.8

tested on: Hs578T; assay: as above; conditions: incubation time: 72 h
Protocol: as §1

Structure (SMILES) | normalised response [%]
CCn1c(C(=O)N(C2CC2)C2CC2)cc2c3c(ncn3C)c(Nc3cc(C)n(C)n3)nc21 (100 nM) | 110
COc1ccc(S(=O)(=O)Nc2cccnc2Nc2ccc(O)cc2)cc1 [ABT-751] (100 nM) | 107
CCNC(=O)CCC/C=C\C[C@@H]1[C@@H](/C=C/[C@@H](O)CCc2ccccc2)[C@H](O)C[C@@H]1O [Bimatoprost] (55 nM) | 94.9
